Laboratory results taken from paper PMC9268571, “Parabens Permeation through Biological Membranes: A Comparative Study Using Franz Cell Diffusion System and Biomimetic Liquid Chromatography” (Molecules, 2022).
Like-named read-outs stand apart in the source and are kept apart here.

Columns and labels:
[1] = IAM chromatography (phospholipophilicity) on IAM.PC.MG; type: physicochemical; conditions: 0.1 M phosphate buffer pH 5.0/acetonitrile, extrapolated to 100% aqueous phase
Description: (§1) Phospholipophilicity was experimentally determined using two IAM analytical columns, i.e., IAM.PC.MG (150 × 4.6 mm, 10 μm p.s., pore size: 300 Å) and IAM.PC.DD2 (150 × 4.6 mm, 10 μm p.s., pore size: 300 Å), both from Regis Chemical Company (Morton Grove, IL, USA). The analyses on the IAM.PC.MG were conducted on a LC-20 AD VP (from Shimadzu Corp., Kyoto, Japan), equipped with an ultraviolet (UV)–visible detector (Shimadzu Model SPD10 AV) set at λ = 254 nm. For the determinations on the IAM.PC.DD2, an alliance HPLC system (Waters Corporation, Milford, MA USA) with 2690/2695 separation module, 2996 PDA detector, 717 plus autosampler, and 2487 dual λ absorbance detector, was used at 254 nm wavelength instead. The methods were set, and chromatograms were recorded by Waters Empower® 3 software (Milford, MA USA). On both columns, employed eluents were 0.1 M phosphate buffer at pH 5.0 and acetonitrile at various percentages with a flow rate of 1.0 mL min^−1. All samples were dissolved in acetonitrile (ca. 10^−4 M), and chromatographic analyses were carried out at 22 ± 2 °C. The two different IAM stationary phases differ from each other in the end-capping of residual amino groups of the silica-propylamine core, which support C10 and C3 alkyl chains being end-capped by both decanoic and propionic anhydrides (IAM.PC.DD2), while IAM.PC.MG supports hydroxy groups being end-capped by methyl glycolate. […] Since all the compounds under our investigation required at least the addition of acetonitrile to the mobile phase to elute within 20 min, at least three different mobile phases containing acetonitrile in percentages (φ), ranging from 10% to 30% (v/v), were employed. All kw IAM values average at least three individual measurements, and the final values are reported as decimal logarithms.

[2] = IAM chromatography (phospholipophilicity) on IAM.PC.DD2; type: physicochemical; conditions: 0.1 M phosphate buffer pH 5.0/acetonitrile, extrapolated to 100% aqueous phase
Description: as §1

[3] = design: method as in PubCHEM; conditions: n-octanol–water; ref PubCHEM; cited from earlier work
[4] = source not stated, no method described; cited from earlier work
in vitro = conditions: male, pig

logkw IAM.MG [1]	logkw IAM.DD2 [2]	Structure (SMILES)	Log P [3]	S (Solubility in water) [4] [µg/mL]	further results
2.292	2.735	O=C(OCc1ccccc1)c1ccc(O)cc1 [BzP, Benzyl 4-hydroxybenzoate]	3.56	92	–
0.615	1.306	COC(=O)c1ccc(O)cc1 [MP, Methyl 4-hydroxybenzoate]	–	–	–
1.339	2.267	CCCOC(=O)c1ccc(O)cc1 [PrP, Propyl 4-hydroxybenzoate]	–	–	detection in receptor fluids (at any time (½–24 h), fully aqueous donor pH 5.0): not detected
1.708	2.448	CC(C)COC(=O)c1ccc(O)cc1 [iBuP, Isobutyl 4-hydroxybenzoate]	3.57	207	–
1.227	1.914	CC(C)OC(=O)c1ccc(O)cc1 [iPrP, Isopropyl 4-hydroxybenzoate]	–	500	–

Structure (SMILES)	logkw IAM.MG [1]	logkw IAM.DD2 [2]	Log P [3]	S (Solubility in water) [4] [µg/mL]	further results
CCCCOC(=O)c1ccc(O)cc1 [BuP, Butyl 4-hydroxybenzoate]	1.818	2.812	3.57	–	–
CCOC(=O)c1ccc(O)cc1 [EP, Ethyl 4-hydroxybenzoate]	0.956	1.751	2.47	885	Log Kp * (determined in the present study) (experimental, Franz cell, porcine ear skin): −6.58 cm/s; time to maximum passage through the porcine skin (from the beginning of the experiment): ≤ 120 min; Maximum Flux (porcine ear skin, saturated solution in PBS pH 5.0 as donor, receptor PBS pH 7.4, 37 °C, ± standard deviation): 2.35 ± 0.71 µg/cm^2/h; Permeation (%) (Median) (porcine ear skin, median, 95% interval confidence in parentheses): 0.110 (0–0.11) %; Papp at 24 h (in vitro): 0.261 ×10⁻⁶ cm/s
O=C(O)c1ccc(O)cc1 [pHBA, 4-Hydroxybenzoic acid]	< 1	< 1	–	–	logkw IAM.MG ([1]; listed as pHB): −0.955; logkw IAM.DD2 ([2]; listed as pHB): −1.054; Maximum Flux (male, pig): 12.68 ± 4.08 µg/cm^2/h; Permeation (%) (Median) (male, pig): 0.997 (0–1.22) %; time to maximum passage through the porcine skin (male, pig): ≤ 30 min; Log Kp * (determined in the present study) (pig): −5.48 cm/s; Papp at 24 h (in vitro): 3.33 ×10⁻⁶ cm/s
